Reference: US20100056516A1 (priority 2006, published 2010)
Read-outs that look alike come from different tables or passages of the source.

Legend:
[1] = test system: HXB2 virus; experiment: microbe, parasite or virus in culture; format: cell-based, HIV
In short: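 Single-cycle infectivity assay in HeLa P4-2 cells measuring inhibition of acute HIV infection, using HXB2 virus.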

[2] = test system: HeLa P4-2 cell line
From the text: The HeLa P4-2 cell line used in the single cycle HIV infectivity Assay B of Example 270 was also used to determine compound cytotoxicity in the absence of viral infection.

[3] = molecular target: HIV integrase (Human immunodeficiency virus type 1 group M subtype B, UniProt P04585); experiment: integrase strand transfer assay (STA); format: biochemical
[4] = molecular target: HIV-1 reverse transcriptase (RNase H) (Human immunodeficiency virus type 1 group M subtype B, UniProt P04585); experiment: ASH assay: RNase H mediated RNA cleavage (ECL format, BioVeris M384); format: biochemical
Protocol: Potency of a substance as an RNase H inhibitors can be determined by measuring its ability prevent RNase H catalyzed cleavage of the RNA strand in a RNA/DNA hybrid duplex substrate. RNase H activity is measured using a substrate generated by annealing the oligoribo-nucleotide 5′-rCrCrUrCrUrCrArArArArArCrArGrGrArGrCrArGrArArArGrArCrArArG (SEQ ID NO:1) to the oligodeoxyribonucleotide 5′-Biotin-[…] (SEQ ID NO:2). […] (SEQ ID NO:3). The resulting double-stranded duplex DNA product is quantitated in an ALPHA screen format using [streptavidin- and anti-fluorescein-coated beads (Packard Bioscience) following the manufacturer's guidelines and reading on a Fusion AlphaScreen instrument. Alternatively, the released 5′-Biotinylated DNA is annealed to a complementary oligodeoxyribonucleotide: 5′-ruthenium-[…] (SEQ ID NO:3). The resulting double-stranded duplex DNA product is quantitated in an ECL screen format using Dynabeads M280 coated with streptavidin (BioVeris Corporation) following the manufacturer's guidelines and reading on a BioVeris M384 Analyzer.

[5] = Human immunodeficiency virus 1, HXB2, HeLaP4-2, read-out: SCIA-B (IC50, μM)
[6] = Human immunodeficiency virus 1, HXB2, HeLaP4-2, read-out: antiviral IC50 (SCIA-B)
[7] = integrase strand transfer, read-out: IC50 in the STA assay
[8] = integrase strand-transfer assay, Example 269, read-out: STA (IC50)
[9] = RNase H mediated RNA cleavage assay, Example 269, read-out: ASH (IC50)
[10] = IC50 in the STA assay, integrase strand transfer
[11] = STA (IC50, μM), integrase strand-transfer assay, Example 269

Row | SMILES | IC50 [1, 6] [µM] | IC50 [3, 7] [µM] | also measured
1 | CCOC(=O)c1c(O)c2cc(-c3cccc(CN4CCOCC4)c3)cnc2n(O)c1=O [Example 57, Ethyl 1,4-dihydroxy-6-[3-(morpholin-4-ylmethyl)phenyl]-2-oxo-1,2-dihydro-1,8-naphthyridine-3-carboxylate] | < 100 | < 50 | IC50 [1, 5]: 0.1 µM; Cytotoxicity (LD50, μM) ([2]; human): 36 µM; IC50 [3, 8]: 0.069 µM; IC50 [4, 9]: 0.52 µM
2 | CCOC(=O)c1c(O)c2c(-c3cccc(CN(C)C)c3)ccnc2n(O)c1=O [Example 230, ethyl 5-{3-[(dimethylamino)methyl]phenyl}-1,4-dihydroxy-2-oxo-1,2-dihydro-1,8-naphthyridine-3-carboxylate] | < 100 | < 50 | IC50 [1, 5]: 0.77 µM; Cytotoxicity (LD50, μM) ([2]; human): >100 µM; IC50 [3, 8]: 2.3 µM; IC50 [4, 9]: 0.11 µM
3 | COc1cccc(-c2c(O)c3cccnc3n(O)c2=O)c1 [Example 40, 1,4-Dihydroxy-3-(3-methoxyphenyl)-1,8-naphthyridin-2(1H)-one] | < 100 | < 50 | IC50 [1, 5]: 0.67 µM; Cytotoxicity (LD50, μM) ([2]; human): >100 µM; IC50 [3, 8]: 0.62 µM; IC50 [4, 9]: 0.11 µM
4 | CN(C)CCC(Nc1cc(=O)n(O)c2ncccc12)c1ccccc1 (centres unmarked) [Example 158, 4-{[3-(dimethylamino)-1-phenylpropyl]amino}-10hydroxy-1,8-naphthyridin-2(1H-one)] | < 100 |  | IC50 [1, 5]: 0.24 µM; Cytotoxicity (LD50, μM) ([2]; human): 16 µM; IC50 [3, 10]: < 50 µM; IC50 [3, 11]: 6.5 µM; IC50 [4]: 0.36 µM
5 | O=C(NC1CCN(Cc2ccccc2)CC1)c1c(O)c2cccnc2n(O)c1=O.O=C(O)C(F)(F)F [Example 21, N-(1-Benzylpiperidin-4-yl)-1,4-dihydroxy-2-oxo-1,2-dihydro-1,8-naphthyridine-3-carboxamide, trifluoro-acetic acid salt] | < 100 |  | IC50 [1, 5]: 0.47 µM; Cytotoxicity (LD50, μM) ([2]; cytotoxicity test B, Alamar Blue, HeLa P4-2 cells, no virus, tested up to 100 micromolar): >100 µM; IC50 [3, 10]: < 50 µM; IC50 [3, 11]: 0.25 µM; IC50 [4]: 0.18 µM
6 | O=c1c(-c2ccccc2)c(O)c2cc(F)cnc2n1O [Example 48, 6-Fluoro-1,4-dihydroxy-3-phenyl-1,8-naphthyridin-2(1H)-one] | < 100 | < 50 | IC50 [1, 5]: 0.14 µM; Cytotoxicity (LD50, μM) ([2]; human): 31 µM; IC50 [3, 8]: 0.023 µM; IC50 [4, 9]: 0.2 µM
7 | O=c1cc(Nc2ccccc2N2CCOCC2)c2cccnc2n1O [Example 147, 1-hydroxy-4-{[2-(4-morpholinyl)phenyl]amino}-1,8-naphthyridin-2(1H-one)] | < 100 |  | IC50 [1, 5]: 0.2 µM; Cytotoxicity (LD50, μM) ([2]; human): 7.7 µM; IC50 [3, 10]: < 50 µM; IC50 [3, 11]: 0.22 µM; IC50 [4]: 0.017 µM
8 | C[C@H](Nc1cc(=O)n(O)c2ncccc12)c1ccccc1 [Example 124, 1-hydroxy-4-{[(1S)-1-phenylethyl]amino}-1,8-naphthyridin-2(1H)-one] | < 100 |  | IC50 [1, 5]: 0.16 µM; Cytotoxicity (LD50, μM) ([2]; human): 50 µM; IC50 [3, 10]: < 50 µM; IC50 [3, 11]: 0.66 µM; IC50 [4]: 0.23 µM
9 | Nc1ccc(-c2cccc(Cc3cc(=O)n(O)c4ncccc34)c2)cc1 [Example 234, 4-[(4′-aminobiphenyl-3-yl)methyl]-1-hydroxy-1,8-naphthyridin-2(1H)-one] | < 100 | < 50 | 
10 | CCOC(=O)c1c(N2CCc3ccc(-c4ccc(F)cc4)cc3C2)c2cccnc2n(O)c1=O [Example 258, ethyl 4-[7-(4-fluorophenyl)-3,4-dihydroisoquinolin-2(1H)-yl]-1-hydroxy-2-oxo-1,2-dihydro-1,8-naphthyridine-3-carboxylate] | < 100 | > 50 | 
11 | O=c1cc(-c2cccc(O)c2)c2cccnc2n1O [Example 237, 1-hydroxy-4-(3-hydroxyphenyl)-1,8-naphthyridin-2(1H)-one] | < 100 | < 50 | 
12 | O=c1c(-c2ccccc2)c(O)c2cc(-c3ccccc3-n3cccn3)cnc2n1O [Example 53, 1,4-Dihydroxy-3-phenyl-6-[2-(1H-pyrazol-1-yl)phenyl]-1,8-naphthyridin-2(1H)-one] | < 100 | < 50 | 
13 | O=c1cc(N2CCN(Cc3ccccc3)CC2)c2cccnc2n1O [Example 136, 4-(4-benzylpiperazin-1-yl)-1-hydroxy-1,8-naphthyridin-2(1H)-one] | < 100 | < 50 | 
14 | CN1CCN(c2cc(=O)n(O)c3ncccc23)CC1=O [Example 148, 1-hydroxy-4-(4-methyl-3-oxo-1-piperazinyl)-1,8-naphthyridin-2 (1H-one)] | < 100 | < 50 | 
15 | CCOC(=O)c1c(O)c2cc(C(C)=O)cnc2n(O)c1=O [Example 70, ethyl 6-acetyl-1,4-dihydroxy-2-oxo-1,2-dihydro-1,8-naphthyridine-3-carboxylate] | < 100 | < 50 | 
16 | O=c1cc(NCc2cccc(F)c2)c2cccnc2n1O [Example 146, 4-[(3-fluorobenzyl)amino]-1-hydroxy-1,8-naphthyridin-2(1H-one)] | < 100 | < 50 | 
17 | O=c1c2ccc(-c3ccccc3)cc2c2cccnc2n1O [Example 267, 5-Hydroxy-9-phenylbenzo[c]-1,8-naphthyridin-6(5.H)-one] | < 100 | < 50 | 
18 | O=c1cc(Nc2ccccc2)c2cccnc2n1O [Example 103, 4-Anilino-1-hydroxy-1,8-naphthyridin-2(1H)-one] | < 100 | < 50 | 
19 | O=C(CN1CCN(Cc2cccc(-c3cc(=O)n(O)c4ncccc34)c2)CC1)N1CCOCC1 [Example 211, 1-hydroxy-4-[3-({4-[2-(4-morpholinyl)-2-oxoethyl]-1-piperazinyl}methyl)phenyl]-1,8-naphthyridin-2(1H-one)] | < 100 | < 50 | 
20 | CCCCc1c(O)c2cccnc2n(O)c1=O [Example 42, 3-Butyl-1,4-dihydroxy-1,8-naphthyridin-2(1H)-one] | < 100 | < 50 | 
21 | COc1ccc(NC(=O)c2c(O)c3cccnc3n(O)c2=O)cn1 [Example 14, 1,4-Dihydroxy-N-(6-methoxypyridine-3-yl)-2-oxo-1,2-dihydro-1,8-naphthyridine-3-carboxamide] | < 100 | < 50 | 
22 | CN(C(=O)c1c(O)c2cccnc2n(O)c1=O)C1CCN(C(=O)OC(C)(C)C)C1 (centres unmarked) [Example 10, tert-Butyl 3-[[(1,4-dihydroxy-2-oxo-1,2-dihydro-1,8-naphthyridin-3-yl)carbonyl](methyl)amino]pyrrolidine-1-carboxylate] | < 100 | < 50 | 
23 | CCOC(=O)c1c(O)c2cc(-c3cc(C)cc(C)c3)cnc2n(O)c1=O [Example 65, Ethyl 6-(3,5-dimethylphenyl)-1,4-dihydroxy-2-oxo-1,2-dihydro-1,8-napthyridine-3-carboxylate] | < 100 | < 50 | 
24 | CCOC(=O)c1c(O)c2cc(C(=O)N3CCC(CCCc4ccccc4)CC3)cnc2n(O)c1=O [Example 83, Ethyl 1,4-dihydroxy-2-oxo-6-{[4-(3-phenylpropyl)piperidin-1-yl]carbonyl}-1,2-dihydro-1,8-naphthyridine-3-carboxylate] | < 100 | < 50 | 
25 | CCOC(=O)c1c(N[C@@H](CO)c2ccccc2)c2cccnc2n(O)c1=O [Example 129, Ethyl 1-hydroxy-4-{[(1R)-2-hydroxy-1-phenylethyl]amino}-2-oxo-1,2-dihydro-1,8-naphthyridine-3-carboxylate] | < 100 | < 50 | 
26 | O=c1c(-c2ccccc2)c(O)c2cc(-c3ccccc3)cnc2n1O [Example 51, 1,4-Dihydroxy-3,6-diphenyl-1,8-maphthyridin-2(1H)-one] | < 100 | < 50 | 
27 | CCOC(=O)N1CCC(Nc2cc(=O)n(O)c3ncccc23)CC1 [Example 109, Ethyl 4-[(1-hydroxy-2-oxo-1,2-dihydro-1,8-naphthyridin-4-yl)amino]piperidine-1-carboxylate] | < 100 | < 50 | 
28 | O=c1c(-c2ccccc2)c(O)c2cc(-c3ccc4ccccc4c3)cnc2n1O [Example 56, 1,4-Dihydroxy-6-(2-naphthyl)-3-phenyl-1,8-naphthyridin-2(1H)-one] | < 100 | < 50 | 
29 | O=c1cc(-c2cccc(CN3CCN(C(c4ccccc4)c4ccc(Cl)cc4)CC3)c2)c2cccnc2n1O (centres unmarked) [Example 207] | < 100 | < 50 | 
30 | CCOC(=O)c1c(O)c2cc(C(=O)N3CCC(Cc4ccccc4)C3)cnc2n(O)c1=O (centres unmarked) [Example 85, Ethyl 6-[(3-benzylpyrrolidin-1-yl)carbonyl]-1,4-dihydroxy-2-oxo-1,2-dihydro-1,8-naphthyridine-3-carboxylate] | < 100 | < 50 | 
